From patent US9751878B2, “Tetrahydronaphthyridine somatostatin receptor 5 antagonists” (Takeda Pharmaceutical Company Limited, priority 2013, dated 2017)

Tested on: Male KK-Ay/Ta mice, a type 2 diabetes model
Test: Antidiabetic effect in mice (2)
Assay type: in vivo
Conditions: 0.03% food admixture with CE-2 diet for 2 weeks; n=7
Procedure: Antidiabetic Effect in Mice (2)
Male KK-Ay/Ta mice (Clea Japan Inc.), a type 2 diabetes model, were used in this study. At the age of 7-week old, blood samples were collected from tail vein at 8:00 am, and animals were divided into separate groups (n=7) based on glycated hemoglobin (GHb), plasma glucose, insulin, triglyceride levels and body weight. The Compound of Example 35 (0.03% (weight % of the compound in the food admixture)) was administered by food admixture with CE-2 diet (Clea Japan Inc.) for 2 weeks. After 2 weeks of treatment, GHb was determined by auto-analyzer HLC-723G8 (TOSOH, Japan).

For CCCc1nc2c(cc1C(=O)O)C(=O)N(C1CCN(Cc3cc(C4CC4)c(-c4ccc(F)cc4F)cc3OCC)CC1)CC2 [Example 35, 6-(1-((2-Cyclopropyl-5-ethoxy-2′,4′-difluorobiphenyl-4-yl)methyl)piperidin-4-yl)-5-oxo-2-propyl-5,6,7,8-tetrahydro-1,6-naphthyridine-3-carboxylic acid], the “Average of delta GHb (%)” value was 0.60%.
